Results: patent US20210007356A1, “IMIDE DERIVATIVE AND FUNGICIDE CONTAINING SAID DERIVATIVE AS ACTIVE INGREDIENT” (HOKKO CHEMICAL INDUSTRY CO., LTD., priority 2018, published 2021)
Where two headings read alike, the source gives them in different places.

Key:
[1] = tested on: rice blast fungus (Pyricularia grisea); assay type: in vivo; conditions: flowable 5,000 ppm, 50 mL irrigation of nursery box, paddy rice; inoculated after 3 weeks; 7 days after inoculation
[2] = tested on: rice sheath blight fungus (Thanatephorus cucumeris); assay: Test Example 8: control effect against rice sheath blight by box treatment (granule); conditions: 5 g of granule on nursery box, paddy rice; inoculated after 3 weeks; 7 days after inoculation
Excerpt: (§1) Control value (%)=[1−(lesion height in sprayed plot/lesion height in unsprayed plot)]×100 (d)
From the top of a nursery box, 5 g of a granule prepared according to Formulation Example-4 was applied to a 2.5-leaf-stage paddy rice (variety: Asahi) seedling raised using a nursery box ( 1/10 the area of standard nursery box in size: 12 cm×15 cm×height 4 cm) within a greenhouse. The formulation-treated paddy rice seedling was immediately transplanted at 5 seedlings/pot into a pot ( 1/10000 are in size) filled with paddy soil (flooded). After growing for 3 weeks within a greenhouse, a culture of rice sheath blight fungus (Thanatephorus cucumeris) grown in advance on a rice straw medium was inoculated into the root of the formulation-treated paddy rice, and disease development was promoted in an artificial weather chamber at 26° C. (relative humidity=100%). Seven days after the inoculation, the rice sheath blight lesion height (height from the root) was examined, and the control value (%) was calculated according to formula (d). […] This test was performed with three replications, each consisting of one plot and one pot, per one formulation plot, and its average evaluation value of control effect was determined.

[3] = tested on: rice blast fungus (Pyricularia grisea); assay type: in vivo; conditions: 5 g of granule on nursery box, paddy rice; inoculated after 3 weeks; 7 days after inoculation
[4] = tested on: rice blast fungus (Pyricularia grisea); assay type: in vivo; conditions: flowable 1,000 ppm, 1 mL dripped in paddy water, inoculated after 1 week, 7 days after inoculation
[5] = tested on: rice sheath blight fungus (Thanatephorus cucumeris); assay: Test Example 6: control effect against rice sheath blight by box treatment (flowable formulation); conditions: flowable 5,000 ppm, 50 mL irrigation of nursery box, paddy rice; inoculated after 3 weeks; 7 days after inoculation
Description: as §1
By irrigation, 50 mL of a diluted solution (5,000 ppm) of a flowable prepared according to Formulation Example-3 was applied to a 2.5-leaf-stage paddy rice (variety: Asahi) seedling raised using a nursery box ( 1/10 the area of standard nursery box in size: 12 cm×15 cm×height 4 cm) within a greenhouse. The formulation-treated paddy rice seedling was immediately transplanted at 5 seedlings/pot into a pot ( 1/10000 are in size) filled with paddy soil (flooded). After growing for 3 weeks within a greenhouse, a culture of rice sheath blight fungus (Thanatephorus cucumeris) grown in advance on a rice straw medium was inoculated into the root of the formulation-treated paddy rice, and disease development was promoted in an artificial weather chamber at 26° C. (relative humidity=100%). Seven days after the inoculation, the rice sheath blight lesion height (height from the root) was examined, and the control value (%) was calculated according to formula (d). […] This test was performed with three replications, each consisting of one plot and one pot, per one formulation plot, and its average evaluation value of control effect was determined.

[6] = tested on: rice blast fungus (Pyricularia grisea); assay type: in vivo; conditions: flowable diluted to 100 ppm, 10 mL per pot foliage spray on paddy rice; inoculated day after; 7 days after inoculation
[7] = tested on: rice sheath blight fungus (Thanatephorus cucumeris); assay: Test Example 10: control effect against rice sheath blight by water surface application (flowable formulation); conditions: flowable 1,000 ppm, 1 mL dripped in paddy water, inoculated after 1 week, 7 days after inoculation
Description: as §1
By dripping treatment in paddy water, 1 mL of a diluted solution (1,000 ppm) of a flowable prepared according to Formulation Example-3 was applied to a 5-leaf-stage paddy rice (variety: Asahi) seedling (5 seedlings/stub, one stub/pot) grown in a pot ( 1/10000 are in size) filled with paddy soil (flooded) within a greenhouse. After growing for 1 week within a greenhouse, a culture of rice sheath blight fungus (Thanatephorus cucumeris) grown in advance on a rice straw medium was inoculated into the root of the formulation-treated paddy rice, and disease development was promoted in an artificial weather chamber at 26° C. (relative humidity=100%). Seven days after the inoculation, the rice sheath blight lesion height (height from the root) was examined, and the control value (%) was calculated according to formula (d). […] This test was performed with three replications, each consisting of one plot and one pot, per one formulation plot, and its average evaluation value of control effect was determined.

[8] = tested on: barley powdery mildew fungus (Erysiphe graminis); assay: Test Example 2: control effect against barley powdery mildew by foliage application; assay type: in vivo; conditions: wettable powder diluted to 100 ppm, 10 mL per pot foliage spray on barley; inoculated day after; 7 days after inoculation

Compound	evaluation value of control effect (from control value, number of lesions) [1]	melting point [°C]	evaluation value of control effect (from control value, lesion height) [2]	evaluation value of control effect (from control value, number of lesions) [3]	evaluation value of control effect (from control value, number of lesions) [4]	evaluation value of control effect (from control value, lesion height) [5]	evaluation value of control effect (from control value, number of lesions) [6]	evaluation value of control effect (from control value, lesion height) [7]	evaluation value of control effect (from control value, lesion area percentage) [8]
CC(C)CC(C)c1ccccc1N(C(=O)c1cccnc1C(F)F)C(=O)c1snc(Cl)c1Cl (centres unmarked) [13-2, 3,4-Dichloro-N-{2-(difluoromethyl)pyridine-3-carbonyl}-N-{2-(1,3-dimethylbutyl)phenyl}isothiazole-5-carboxamide]	5	111 to 115.6	5	5	5	5	4	5	5
O=C(c1nccnc1C(F)(F)F)N(c1ccccc1-c1ccc(F)c(F)c1)c1snc(Cl)c1Cl [13-55, N-(3,4-Dichloroisothiazol-5-yl)-N-(3′,4′-difluorobiphen-2-yl)-3-(trifluoromethyl)pyrazine-2-carboxamide]	5	136.1 to 139.2	5	5	5	5	4	5	5
CC1CC(C)(C)c2cccc(N(C(=O)c3cn(C)nc3C(F)F)C(=O)c3snc(Cl)c3Cl)c21 (centres unmarked) [25-4, 3,4-Dichloro-N-{3-(difluoromethyl)-1-methyl-pyrazole-4-carbonyl)-N-(2,3-dihydro-1,1,3-trimethyl-1H-inden-4-yl)-isothiazole-5-carboxamide]	–	154.3 to 155.6	5	–	–	5	–	5	4
CC1OC(C)(C)c2cccc(N(C(=O)c3cn(C)nc3C(F)F)C(=O)c3scnc3C(F)F)c21 (centres unmarked) [25-110]	5	–	5	5	5	5	4	5	4
Cc1nn(C)c(Cl)c1C(=O)N(C(=O)c1snc(Cl)c1Cl)c1cccc2c1C(C)OC2(C)C (centres unmarked) [25-115, 3,4-Dichloro-N-(5-chloro-1,3-dimethyl-pyrazole-4-carbonyl)-N-(1,3-dihydro-1,1,3-trimethylisobenzofuran-4-yl)-isothiazole-5-carboxamide]	–	165.5 to 170.3	5	–	–	5	4	5	4
Cc1nc(C(F)F)c(C(=O)N(C(=O)c2snnc2C)c2cccc3c2C(C)OC3(C)C)s1 (centres unmarked) [26-50]	5	–	5	5	5	5	4	5	4
Cc1nc(C(F)F)c(C(=O)N(C(=O)c2scnc2C(F)F)c2cccc3c2C(C)CC3(C)C)s1 (centres unmarked) [26-85]	5	–	5	5	5	5	4	5	5
